How the values were obtained:
[1] = Tigecycline plasma PK after IV bolus in anesthetized rats; assay type: in vivo; details: female, Sprague-Dawley, rat
Method: Naïve, female Sprague-Dawley Rats (Taconic Farms, Germantown, N.Y.) housed in groups of three were maintained in a climate-controlled room on a 12:12 h light-dark cycle with food and water available ad libitum. Animals weighed approximately 250 g at the time of testing. Rats were fasted overnight (with water available), prior to dosing. Tigecycline stock was prepared fresh on the day of each study in water and diluted in the indicated formulations.
Intravenous (IV) doses were administered as a bolus injection into the left carotid […] at a dose volume of 1.6 mL/kg. Intraduodenal doses were administered as bolus injections into the duodenum at a dose volume of 1.2 mL/kg.
Female rats were maintained in groups of 3 per polycarbonate (or equivalent) shoebox cage with fresh wood chip bedding at 20-22° C. under a 12 hour on/off light:dark cycle. The rats were fasted overnight prior to surgery and anesthetized by intramuscular injection of 0.3 mL fresh ketamine (67 mg/mL)/xylazine (42 mg/mL) in 0.9% saline into the hind flank. After the rats went limp they were injected intraperitoneally (IP) with 0.1 mL ketamine/xylazine. The anesthetic state was maintained by IP injection of ketamine/xylazine on an as needed basis. Animal weights were determined post-anesthesia induction.
An indwelling catheter for blood sampling was inserted into the right carotid artery by exposing the trachea with Mayo scissors, clamping the bottom of the […] and tying off the top with surgical suture. The area between was nicked with small sharp scissors and Intramedic polyethylene tubing was inserted into the nicked area. The artery with the tubing was sealed with suture to prevent leakage. A 23-gauge Intramedic Luer Stub Adapter was inserted into the cannula and attached to a 3 way valve which was connected to a 3 cc syringe filled with 0.9% normal saline and a 1 cc syringe filled with 5 U/mL sodium heparin for blood sampling.
Blood samples were collected in tubes containing 20 μL 180 mM EDTA. The tubes were maintained on ice and then centrifuged at approximately 3000 rpm at 4° C. for 5 minutes. Plasma was harvested immediately after centrifugation of the samples and stored at −20° C. pending analysis.
Minocycline (VWR international) was used as an internal standard. Sample processing/clean-up of plasma samples was carried out offline by protein precipitation with acidified acetonitrile.
The HPLC system consisted of Shimadzu SIL-HTc HPLC system equipped with dual Shimadzu LC-10ADvp isopumps, a Shimadzu CTO-10ASvp column temperature controller and a Shimadzu SPD-10Avp variable wavelength detector. […] Mobile phase A consisted of 23 mM phosphate buffer pH 2.5 with 6 mM 1-octanesulfonic acid, while mobile phase B consisting of pure acetonitrile. […] The mobile phase flow rate was 1.2 mL/min. Detection was performed using the SPD-10Avp variable wavelength detector set at 350 nm, with a sensitivity of 0.001 aufs.
The samples were then centrifuged under refrigeration at 13 k rpm for 30 minutes. The supernatant was taken and the liquid was removed to dryness in a turbovap. The samples were then reconstituted in 55 μL 0.1M phosphate buffer, pH 3.8. Samples were maintained at 10° C. while on the autoinjector during sequence. The injection volume was 50 μL. The unknown concentration in rat plasma samples was determined by interpolation of the peak area ratios of analyte:internal standard versus the ratio of their nominal concentrations into the regression line obtained from calibration standards spiked in pooled rat plasma. No regression weighting was used for the calculations. […] The calibration curve covered the range of 0.05 μg/mL to 5.0 μg/mL.
Due to analytical issues observed in the analyses of earlier study samples, the analytical method was changed slightly for later samples. Mobile phase A was changed to 23 mM phosphate buffer pH 2.5 with 4 mM 1-octanesulfonic acid, while mobile phase B was changed to 90% acetonitrile, 10% water, with 2 mM 1-octanesulfonic acid. […]

[2] = known formulations; cited from earlier work
[3] = IV bolus 0.64 mg/kg, PBS (RA851)

Q: Which results are given for `CN(C)c1cc(NC(=O)CNC(C)(C)C)c(O)c2c1C[C@H]1C[C@H]3[C@H](N(C)C)C(O)=C(C(N)=O)C(=O)[C@@]3(O)C(O)=C1C2=O` [Tigecycline]?
A: AUC(0-t) [1, 3]: 970 ng·h/mL; Cmax [1, 3]: 1790 ng/mL; Tmax [1, 3]: 5 min; concentration at 0 min [1, 3]: 0 ng/mL; concentration at 5 min [1, 3]: 1790 ng/mL; concentration at 10 min [1, 3]: 888 ng/mL; concentration at 20 min [1, 3]: 447 ng/mL; concentration at 30 min [1, 3]: 376 ng/mL; concentration at 60 min [1, 3]: 290 ng/mL; concentration at 120 min [1, 3]: 216 ng/mL; concentration at 240 min ([1]; IV bolus 0.64 mg/kg, PBS (RA851), 240 min): 116 ng/mL; AUC(0-t) ([1]; IV bolus 12 mg/kg, PBS (RA853)): 13200 ng·h/mL; Cmax ([1]; IV bolus 12 mg/kg, PBS (RA853)): 50700 ng/mL; Tmax ([1]; IV bolus 12 mg/kg, PBS (RA853)): 5 min; concentration at 0 min ([1]; IV bolus 12 mg/kg, PBS (RA853)): 0 ng/mL; concentration at 5 min ([1]; IV bolus 12 mg/kg, PBS (RA853)): 50700 ng/mL; concentration at 10 min ([1]; IV bolus 12 mg/kg, PBS (RA853)): 26200 ng/mL; concentration at 20 min ([1]; IV bolus 12 mg/kg, PBS (RA853)): 9310 ng/mL; concentration at 30 min ([1]; IV bolus 12 mg/kg, PBS (RA853)): 5760 ng/mL; concentration at 60 min ([1]; IV bolus 12 mg/kg, PBS (RA853)): 2610 ng/mL; concentration at 120 min ([1]; IV bolus 12 mg/kg, PBS (RA853)): 1870 ng/mL; AUC(0-t) ([1]; RA869, IV, 0.6 mg/kg): 132 ng·h/mL; Cmax ([1]; RA869, IV, 0.6 mg/kg): 369 ng/mL; Tmax ([1]; RA869, IV, 0.6 mg/kg): 7.5 min; maximal oral bioavailablity % (% F) [2]: less than 5%

From US9526785B2, “Pharmaceuticals for oral delivery” (Enteris BioPharma, Inc., priority 2013, dated 2016)
